This assay deals with T1, sodium-proton exchanger of subtype 3 (NHE3) (Homo sapiens, UniProt P48764).
T1 construct: expressed in transfected cells
T1 sequence (P48764 26-834): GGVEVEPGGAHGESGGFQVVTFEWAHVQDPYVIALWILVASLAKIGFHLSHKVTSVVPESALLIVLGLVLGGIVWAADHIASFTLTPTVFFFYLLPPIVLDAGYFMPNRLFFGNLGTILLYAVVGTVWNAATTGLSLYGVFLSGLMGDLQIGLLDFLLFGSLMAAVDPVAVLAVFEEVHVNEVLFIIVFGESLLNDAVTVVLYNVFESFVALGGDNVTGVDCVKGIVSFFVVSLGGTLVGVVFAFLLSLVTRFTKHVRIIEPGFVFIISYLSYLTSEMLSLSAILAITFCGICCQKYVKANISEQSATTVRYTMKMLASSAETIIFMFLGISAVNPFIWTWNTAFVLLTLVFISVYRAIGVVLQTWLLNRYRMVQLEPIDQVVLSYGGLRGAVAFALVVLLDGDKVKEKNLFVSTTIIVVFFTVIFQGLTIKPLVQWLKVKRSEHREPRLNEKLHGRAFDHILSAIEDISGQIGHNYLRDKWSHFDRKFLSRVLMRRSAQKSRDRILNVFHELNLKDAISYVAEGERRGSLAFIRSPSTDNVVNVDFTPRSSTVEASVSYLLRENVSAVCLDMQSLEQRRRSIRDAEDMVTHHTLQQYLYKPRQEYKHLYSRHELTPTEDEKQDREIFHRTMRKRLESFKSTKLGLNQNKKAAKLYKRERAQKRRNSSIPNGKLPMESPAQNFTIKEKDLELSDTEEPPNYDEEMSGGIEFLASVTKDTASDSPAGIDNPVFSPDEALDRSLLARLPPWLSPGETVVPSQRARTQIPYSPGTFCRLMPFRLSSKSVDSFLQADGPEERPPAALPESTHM
Kind of assay: Recovery of intracellular pH (pHi) after acidification in LAP1 cells stably expressing NHE3 (BCECF fluorescence, FLIPR). The assay is classed as cell-based. The settings on record: LAP1 cells stably expressing NHE3; pH recovery after acidification; range 1 is % inhibition at 10 μM; read-out: Activity range (inhibitory effect on NHE3).

SMILES strings stand for the structures. pIC50: −log10 of the molar value. A value given as a limit tells only on which side of the number the result lay.

Regarding `c1ccc2c(c1)CC[C@H](N1CCOCC1)[C@H]2Oc1cccc2ncccc12` (racemic) [Example 570, 5-(rac-trans-(1,2)-2-morpholin-4-yl-1,2,3,4-tetrahydronaphthalen-1-yloxy)quinoline], the inhibition at 10 µM lay within 20 to 50%.

As for `N[C@@H]1CCCN([C@H]2CCc3ccccc3[C@@H]2Oc2ccc(F)c3cccnc23)C1` (racemic) [Example 79, (R)-1-[rac-trans-(1,2)-1-(5-fluoroquinolin-8-yloxy)-1,2,3,4-tetrahydronaphthalen-2-yl]piperidin-3-ylamine], the pIC50 is greater than 6.00.

With `O=c1ocnn1-c1ccc(O[C@H]2c3cc(Cl)cc(Cl)c3C[C@@H]2N2CC[C@@H](O)C2)cc1` [Example 735, 3-{4-[trans-(1S,2S)-4,6-Dichloro-2-((R)-3-hydroxy-pyrrolidin-1-yl)-indan-1-yloxy]-phenyl}-3H-[1,3,4]oxadiazol-2-one], the pIC50 was 5.00 to 6.00.

With `CS(=O)(=O)c1ccc(O[C@H]2c3cc(Cl)cc(Cl)c3C[C@@H]2CN2CCCC2)cc1` (racemic) [Example 280, trans-4,6-dichloro-1-(4-methylsulfonyl-phenyloxy)-2-pyrrolidinylmethylindane], the pIC50 was 5.00 to 6.00. On to `C[C@@H]1CN([C@H]2Cc3c(Cl)cc(Cl)cc3[C@@H]2Oc2ccc(S(C)(=O)=O)cc2)C[C@H](C)N1` [Example 21, (3R,5S)-1-[trans-(1S,2S)-4,6-dichloro-1-(4-methanesulfonylphenoxy)indan-2-yl]-3,5-dimethylpiperazine], for which the pIC50 is greater than 6.00. For the compound `N[C@H]1CCCN([C@@H]2Cc3ccccc3[C@H]2Oc2ccc(S(N)(=O)=O)c(Cl)c2Cl)C1` (racemic) [Example 536, 4-[rac-trans-(1,2)-2-((S)-3-aminopiperidin-1-yl)indan-1-yloxy]-2,3-dichlorobenzenesulfonamide], the pIC50 was 5.00 to 6.00. On to `CS(=O)(=O)c1ccc(O[C@H]2c3cc(F)cc(Cl)c3C[C@@H]2N2CCNCC2)cc1` (racemic) [Example 283, 1-[rac-trans-(1,2)-4-chloro-6-fluoro-1-(4-methanesulfonylphenoxy)indan-2-yl]piperazine], for which the pIC50 was greater than 6.00. Consider `c1ccc2c(c1)C[C@@H](N1C[C@H]3CNC[C@H]3C1)[C@@H]2Oc1ccc2ccncc2c1` (racemic) [Example 589, 7-[rac-trans-(1,2)-2-(Hexahydropyrrolo[3,4-c]pyrrol-2-yl)indan-1-yloxy]isoquinoline], for which the pIC50 was 5.00 to 6.00. The same measure, in the same setting: to `Cc1cn(-c2ccc(O[C@H]3c4cc(Cl)cc(Cl)c4C[C@@H]3N3CC[C@@H](O)C3)c(F)c2)c(C)n1` [Example 727, (R)-1-{trans-(1S,2S)-4,6-Dichloro-1-[4-(2,4-dimethyl-imidazol-1-yl)-2-fluoro-phenoxy]-indan-2-yl}-pyrrolidin-3-ol] belongs greater than 6.00.

Consider `O=C(O)COC(=O)Nc1ccc(O[C@H]2c3cc(Cl)cc(Cl)c3C[C@@H]2N2CC[C@@H](O)C2)c(Cl)c1` [Example 236, {3-chloro-4-[(1S,2S)-4,6-dichloro-2-((R)-3-hydroxypyrrolidin-1-yl)indan-1-yloxy]phenylcarbamoyloxy}acetic acid], for which the pIC50 was greater than 6.00. For `FC(F)(F)c1cnccc1O[C@H]1c2ccccc2C[C@@H]1CN1CCCC1` (racemic) [Example 462, 4-(2-pyrrolidin-1-ylmethylindan-1-yloxy)-3-trifluoromethylpyridine], the inhibition at 10 µM lay in the range of 20 to 50%.

As for `Clc1cnccc1O[C@H]1c2ccccc2C[C@@H]1N1CCCC1` (racemic) [Example 441, 3-chloro-4-(2-pyrrolidin-1-ylindan-1-yloxy)pyridine], the pIC50 was 5.00 to 6.00. Turning to `CCCC1(N)CCCN([C@H]2Cc3c(Cl)cc(Cl)cc3[C@@H]2Oc2ccc(S(C)(=O)=O)cc2)C1` (stereo partly drawn) [Example 300, 1-[trans-(1S,2S)-4,6-dichloro-1-(4-methanesulfonylphenoxy)indan-2-yl]-3-propylpiperidin-3-ylamine], the pIC50 was 5.00 to 6.00. In the case of `NS(=O)(=O)c1ccc(O[C@H]2c3ccccc3C[C@@H]2CN2CCCC2)cc1Cl` (racemic) [Example 389, 2-chloro-4-(2-pyrrolidin-1-ylmethylindan-1-yloxy)benzenesulfonamide], the pIC50 is 5.00 to 6.00. The same measure, in the same setting: to `NCC1CCN([C@@H]2Cc3ccccc3[C@H]2Oc2ccc(N3CCNCC3)cc2)CC1` (racemic) [Example 619, C-{1-[rac-trans-(1,2)-1-(4-piperazin-1-ylphenoxy)indan-2-yl]piperidin-4-yl}methylamine] belongs 5.00 to 6.00; to `CS(=O)(=O)c1ccc(O[C@H]2c3ccccc3C[C@@H]2CN2CCCC2)cc1` (racemic) [Example 274, 1-[rac-trans-(1,2)-1-(4-methanesulfonylphenoxy)indan-2-ylmethyl]pyrrolidine], 5.00 to 6.00; to `NS(=O)(=O)c1ccc(O[C@H]2c3ccccc3C[C@@H]2N2CCCC2)c(Cl)c1` (racemic) [Example 444, 3-chloro-4-(rac-trans-(1,2)-2-pyrrolidin-1-ylindan-1-yloxy)benzenesulfonamide], greater than 6.00. On to `CS(=O)(=O)c1ccc(OC2c3ccccc3CC2N2CCCC2)c(Cl)c1` (racemic) [Example 265, 1-[rac-trans-(1,2)-1-(2-chloro-4-methanesulfonylphenoxy)indan-2-yl]pyrrolidine], for which the pIC50 is greater than 6.00. Still for that read-out and setting: the same measure for `CN(C)C(=O)Cc1ccc(O[C@H]2c3ccccc3C[C@@H]2N2CCCC2)cc1` (racemic) [Example 634, N,N-dimethyl-2-[4-(rac-trans-(1,2)-2-pyrrolidin-1-ylindan-1-yloxy)phenyl]acetamide]: 5.00 to 6.00; for `O=C1CNC(=O)N1c1ccc(Cl)c(O[C@H]2c3cc(Cl)cc(F)c3C[C@@H]2N2CC[C@@H](O)C2)c1` [Example 438, 3-{4-chloro-3-[(1S,2S)-6-chloro-4-fluoro-2-((R)-3-hydroxypyrrolidin-1-yl)indan-1-yloxy]phenyl}imidazolidine-2,4-dione]: 5.00 to 6.00. On the same count and under the same terms, to `CC(=O)Nc1ccc(S[C@H]2c3cc(Cl)cc(Cl)c3C[C@@H]2N2CC[C@@H](O)C2)cc1` [Example 699, N-{4-[(1S,2S)-4,6-dichloro-2-((R)-3-hydroxypyrrolidin-1-yl)indan-1-ylsulfanyl]phenyl}acetamide] belongs 5.00 to 6.00; to `Nc1ccc2c(O[C@H]3c4ccccc4CC[C@@H]3N3CCC[C@@H](N)C3)cccc2c1` (racemic) [Example 80, (R)-1-[rac-trans-(1,2)-1-(6-aminonaphthalen-1-yloxy)-1,2,3,4-tetrahydronaphthalen-2-yl]piperidin-3-ylamine], 5.00 to 6.00. The same measure, in the same setting: the same measure for `CS(=O)(=O)c1ccc(O[C@H]2c3cc(Cl)cc(Cl)c3C[C@@H]2N2CCC[C@H]2CN2CCCC2)cc1` [Example 195, (S)-1-[trans-(1S,2S)-4,6-dichloro-1-(4-methanesulfonylphenoxy)indan-2-yl]-2-pyrrolidin-1-ylmethylpyrrolidine]: greater than 6.00. For `Fc1ccc(O[C@H]2c3cc(Cl)cc(Cl)c3C[C@@H]2N2CCC2)c2ncccc12` [Example 591, 8-((1S,2S)-2-azetidin-1-yl-4,6-dichloroindan-1-yloxy)-5-fluoroquinoline], the inhibition at 10 µM lay within 20 to 50%. For the compound `N[C@H]1CCCN([C@H]2CCc3ccccc3[C@@H]2Oc2ccccc2Br)C1` (racemic) [Example 151, (S)-1-[rac-trans-(1,2)-1-(2-bromophenoxy)-1,2,3,4-tetrahydronaphthalen-2-yl]piperidin-3-ylamine], the inhibition at 10 µM fell in the range of 20 to 50%. Consider `Clc1cc(Cl)c2c(c1)[C@H](Oc1ccc(-n3cncn3)cc1)[C@@H](N1CCNCC1)C2` (racemic) [Example 276, 1-[rac-trans-(1,2)-4,6-dichloro-1-(4-[1,2,4]triazol-1-ylphenoxy)indan-2-yl]piperazine], for which the pIC50 was greater than 6.00. `CN1CCN([C@H]2Cc3c(Cl)cc(Cl)cc3[C@@H]2Oc2ccc(C#N)cc2F)CC1` [Example 485, 4-[(1S,2S)-4,6-dichloro-2-(4-methylpiperazin-1-yl)indan-1-yloxy]-3-fluorobenzonitrile]: the inhibition at 10 µM is 20 to 50%. With `Cc1c(Cl)cccc1O[C@@H]1c2ccccc2C[C@H]1N1CCC(CN)C1` (mixture of isomers) [Example 611, C-{1-[rac-trans-(1,2)-1-(3-chloro-2-methylphenoxy)indan-2-yl]pyrrolidin-3-yl}methylamine], the pIC50 was 5.00 to 6.00. Turning to `CN1CCN(c2cccc(O[C@H]3c4cc(Cl)cc(Cl)c4C[C@@H]3N3CCNCC3)c2)C1=O` (racemic) [Example 258, 1-[3-(rac-trans-(1,2)-4,6-dichloro-2-piperazin-1-ylindan-1-yloxy)phenyl]-3-methylimidazolidin-2-one], the pIC50 was greater than 6.00. For `CN(C)C[C@H]1Cc2c(Cl)cc(Cl)cc2[C@@H]1Oc1ccc(S(C)(=O)=O)cc1` (racemic) [Example 217, [rac-trans-(1,2)-4,6-dichloro-1-(4-methanesulfonylphenoxy)indan-2-ylmethyl]dimethylamine], the inhibition at 10 µM was in the range of 20 to 50%.
